The text below walks through data of US7691836B2, “Progesterone receptor modulators” (N.V. Organon, priority 2004, dated 2010).

Molecules are shown by their SMILES.

The target of experiment [1] is T1, progesterone receptor-B (Homo sapiens, UniProt P06401).
T1 sequence (P06401 1-933): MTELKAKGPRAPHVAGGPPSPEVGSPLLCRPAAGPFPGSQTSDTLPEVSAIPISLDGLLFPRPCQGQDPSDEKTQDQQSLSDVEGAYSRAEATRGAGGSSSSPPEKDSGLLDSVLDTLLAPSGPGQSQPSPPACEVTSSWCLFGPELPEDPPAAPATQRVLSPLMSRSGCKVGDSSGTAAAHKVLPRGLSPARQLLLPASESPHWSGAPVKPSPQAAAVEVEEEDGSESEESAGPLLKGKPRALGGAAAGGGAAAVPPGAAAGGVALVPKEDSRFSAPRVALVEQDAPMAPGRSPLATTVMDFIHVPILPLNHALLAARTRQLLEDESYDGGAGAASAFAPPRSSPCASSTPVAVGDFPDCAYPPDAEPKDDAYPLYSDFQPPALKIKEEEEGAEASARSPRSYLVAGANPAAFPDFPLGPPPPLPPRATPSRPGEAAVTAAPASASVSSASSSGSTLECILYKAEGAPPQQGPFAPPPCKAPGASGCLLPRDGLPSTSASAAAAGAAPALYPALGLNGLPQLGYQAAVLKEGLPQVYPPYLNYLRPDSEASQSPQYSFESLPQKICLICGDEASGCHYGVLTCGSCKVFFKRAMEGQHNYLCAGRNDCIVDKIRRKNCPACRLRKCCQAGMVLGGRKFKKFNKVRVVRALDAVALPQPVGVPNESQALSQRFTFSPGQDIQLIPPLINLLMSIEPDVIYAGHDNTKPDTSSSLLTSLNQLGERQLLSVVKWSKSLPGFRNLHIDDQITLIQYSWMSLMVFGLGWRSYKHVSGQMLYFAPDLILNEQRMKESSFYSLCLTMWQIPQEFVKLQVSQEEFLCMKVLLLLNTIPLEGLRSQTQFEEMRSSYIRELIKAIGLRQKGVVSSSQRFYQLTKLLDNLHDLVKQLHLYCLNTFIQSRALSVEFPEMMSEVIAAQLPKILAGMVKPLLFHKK
Description: Progesterone receptor-B transactivation, agonistic mode (CHO cells, luciferase). Format: cell-based. Conditions: for EC50: CHO cells, agonistic mode, read-out: PRBagoEC50; for Emax: CHO, read-out: PRBago Eff (%). From the text: For selecting compounds of the subject invention with a mixed modulating effect on the progesterone receptor, testing in the agonistic mode must result in an intrinsic activity of between about 15% and about 85% of the maximal activity when (16α)-16-ethyl-21-hydroxy-19-norpregn-4-ene-3,20-dione is used as a reference. Moreover, this maximal agonistic activity should be reached at a concentration of 10^−6 or less, and preferably at a concentration of 10^−8 or less.
(§1) The progestagenic activity of a compound of the invention (EC50 and intrinsic agonistic activity) was determined in an in vitro bioassay of Chinese hamster ovary (CHO) cells as described by W. G. E. J. Schoonen et al. (Anal. Biochem. 261 (1998), 222-224). […] The efficacy of the antagonistic effect was expressed as the percentage of the effect produced by a standard antagonist, (6β,11β,17β)-11-[4-(dimethylamino)phenyl]-4′,5′-dihydro-6-methylspiro[estra-4,9-diene-17,2′(3′H)-furan]-3-one.
(§2) It will be recognized by those skilled in the art that, in the setting described above, the EC50 determined is more or less absolute and depends on the intrinsic property of the tested compound itself, however, the IC50 depends on the amount and agonistic EC50 of the inducer as well as on the intrinsic property of the tested compound itself. Thus, with the same amount of inducer, a relatively strong antagonist will be able to produce a measurable IC50 whereas a relatively weak antagonist may fail to produce a detectable result.

Experiment [2] has as its target T1, progesterone receptor-B. Description: Progesterone receptor-B transactivation, antagonistic mode (inhibition of luciferase transactivation by inducer, CHO cells). Format: cell-based. The following applies: for Emax: CHO, read-out: PRBant Eff (%); for EC50: in the presence of 0.1 nM inducer (16α)-16-ethyl-21-hydroxy-19-norpregn-4-ene-3,20-dione, read-out: PRBant EC50. Here is the method:
In the antagonistic mode, testing must result in an intrinsic activity of between about 85% and about 15% of the maximal activity when (6β,11β,17β)-11-[4-(dimethylamino)phenyl]-4′,5′-dihydro-6-methylspiro[estra-4,9-diene-17,2′(3′H)-furan]-3-one is used as a reference.
as §1, §2

Setting [3] is: intrinsic agonistic activity, relative to reference (16α)-16-ethyl-21-hydroxy-19-norpregn-4-ene-3,20-dione.
The mark [4] stands for this setting: intrinsic antagonistic activity, percentage of effect of standard antagonist (6β,11β,17β)-11-[4-(dimethylamino)phenyl]-4′,5′-dihydro-6-methylspiro[estra-4,9-diene-17,2′(3′H)-furan]-3-one, 0.1 nM inducer.

For the molecule `C[C@@H]1C[C@H]2[C@@H]3CCC4=CC(=O)CCC4=C3[C@@H](c3ccc(-c4cccnc4)cc3)C[C@]2(C)[C@H]1C(=O)C1CC1` [Example 1, (11β,16α,17β)-17-cyclopropylcarbonyl-16-methyl-11-[4-(3-pyridinyl)-phenyl]estra-4,9-dien-3-one], the EC50 was 0.2 nM on progesterone receptor-B [1] and 0.267 nM at progesterone receptor-B [2]. Further, the Emax came to 49.2% on progesterone receptor-B [1] (setting [3]) and 46.4% on progesterone receptor-B [2] (setting [4]).

For `C[C@@H]1C[C@H]2[C@@H]3CCC4=CC(=O)CCC4=C3[C@@H](c3ccc(-c4cccnc4)cc3)C[C@]2(C)[C@H]1C(=O)C1CC1.Cl` [Example 2, (11β,16α,17β)-17-cyclopropylcarbonyl-16-methyl-11-[4-(3-pyridinyl)-phenyl]estra-4,9-dien-3-one hydrochloride], the EC50 at progesterone receptor-B [1] turned out to be 0.34 nM; on progesterone receptor-B [2] it was 3.3 nM. In addition, the “PRBago Eff (%)” value at progesterone receptor-B [1] (setting [3]) stood at 44.5%. For the same molecule, on progesterone receptor-B [2] (setting [4]), the “PRBant Eff (%)” value stood at 47%.

With `COc1ccc(-c2ccc([C@H]3C[C@@]4(C)[C@@H](C[C@@H](C)[C@@H]4C(=O)C4CC4)[C@@H]4CCC5=CC(=O)CCC5=C43)cc2)cn1` [Example 3, (11β,16α,17β)-17-cyclopropylcarbonyl-11-[4-(6-methoxypyridin-3-yl)phenyl]-16-methylestra 4,9-dien-3-one], the EC50 on progesterone receptor-B [1] amounted to 0.12 nM; at progesterone receptor-B [2], 0.628 nM. Moreover, the results for the Emax at progesterone receptor-B [1] (setting [3]) and on progesterone receptor-B [2] (setting [4]) were 41.5% and 59%, respectively.

With `C[C@@H]1C[C@H]2[C@@H]3CCC4=CC(=O)CCC4=C3[C@@H](c3ccc(-c4ccc(Cl)nc4)cc3)C[C@]2(C)[C@H]1C(=O)C1CC1` [Example 4, (11β,16α,17β)-11-[4-(6-chloropyridin-3-yl)phenyl]-17-cyclopropyl-carbonyl-16-methylestra-4,9-dien-3-one], the EC50 at progesterone receptor-B [1] stood at 1.1 nM; on progesterone receptor-B [2] it was 0.47 nM. Besides, the figures for the Emax on progesterone receptor-B [1] (setting [3]) and on progesterone receptor-B [2] (setting [4]) were 46.5% and 43%, respectively.

Turning to `C[C@@H]1C[C@H]2[C@@H]3CCC4=CC(=O)CCC4=C3[C@@H](c3ccc(-c4ccc(F)nc4)cc3)C[C@]2(C)[C@H]1C(=O)C1CC1` [Example 5, (11β,16α,17β)-17-cyclopropylcarbonyl-11-[4-(6-fluoropyridin-3-yl)phenyl]-16-methylestra-4,9-dien-3-one], the EC50 on progesterone receptor-B [1] is 0.49 nM; on progesterone receptor-B [2] it was 8.48 nM. Also, the values for the Emax at progesterone receptor-B [1] (setting [3]) and at progesterone receptor-B [2] (setting [4]) were 50.5% and 50%, respectively.

With `COc1cncc(-c2ccc([C@H]3C[C@@]4(C)[C@@H](C[C@@H](C)[C@@H]4C(=O)C4CC4)[C@@H]4CCC5=CC(=O)CCC5=C43)cc2)c1` [Example 6, (11β,16α,17β)-17-cyclopropylcarbonyl-16-methyl-11-[4-(5-methoxy-pyridin-3-yl)phenyl]estra-4,9-dien-3-one], the figures for the EC50 on progesterone receptor-B [1] and on progesterone receptor-B [2] were 1.3 nM and 28 nM, respectively. The Emax on progesterone receptor-B [1] (setting [3]) stood at 54%; at progesterone receptor-B [2] (setting [4]) it was 34%.

Take `C[C@@H]1C[C@H]2[C@@H]3CCC4=CC(=O)CCC4=C3[C@@H](c3ccc(-c4cnc5ccccc5c4)cc3)C[C@]2(C)[C@H]1C(=O)C1CC1` [Example 7, (11β,16α,17β)-17-cyclopropylcarbonyl-16-methyl-11-[4-(3-quinolidinyl)phenyl]estra-4,9-dien-3-one]: the results for the EC50 at progesterone receptor-B [1] and on progesterone receptor-B [2] were 1 nM and 3.14 nM, respectively. Besides, the Emax on progesterone receptor-B [1] (setting [3]) was 50%; on progesterone receptor-B [2] (setting [4]), 24%.

For the molecule `C[C@@H]1C[C@H]2[C@@H]3CCC4=CC(=O)CCC4=C3[C@@H](c3ccc(-c4ccnnc4)cc3)C[C@]2(C)[C@H]1C(=O)C1CC1` [Example 8, (11β,16α,17β)-17-cyclopropylcarbonyl-16-methyl-11-[4-(4-pyridazinyl)phenyl]estra-4,9-dien-3-one], the results for the EC50 on progesterone receptor-B [1] and on progesterone receptor-B [2] were 0.36 nM and 3.64 nM, respectively. Also, the Emax at progesterone receptor-B [1] (setting [3]) came out at 50.5%; on progesterone receptor-B [2] (setting [4]), 37%.

As to `C[C@@H]1C[C@H]2[C@@H]3CCC4=CC(=O)CCC4=C3[C@@H](c3ccc(-c4cnccn4)cc3)C[C@]2(C)[C@H]1C(=O)C1CC1` [Example 9, (11β,16α,17β)-17-cyclopropylcarbonyl-16-methyl-11-[4-(pyrazin-2-yl)phenyl]estra-4,9-dien-3-one], the EC50 on progesterone receptor-B [1] was 1.13 nM; at progesterone receptor-B [2], 1.3 nM. Also, the Emax at progesterone receptor-B [1] (setting [3]) stood at 54%; on progesterone receptor-B [2] (setting [4]) it was 35%.

Take `C[C@@H]1C[C@H]2[C@@H]3CCC4=CC(=O)CCC4=C3[C@@H](c3ccc(-c4ccccn4)cc3)C[C@]2(C)[C@H]1C(=O)C1CC1` [Example 10, (11β,16α,17β)-17-cyclopropylcarbonyl-16-methyl-11-[4-(2-pyridinyl)phenyl]estra-4,9-dien-3-one]: the EC50 worked out at 2.6 nM at progesterone receptor-B [1] and 14.8 nM on progesterone receptor-B [2]. Also, the Emax on progesterone receptor-B [1] (setting [3]) amounted to 49.2%; at progesterone receptor-B [2] (setting [4]), 32.5%.

Regarding `Cc1ccc(-c2ccc([C@H]3C[C@@]4(C)[C@@H](C[C@@H](C)[C@@H]4C(=O)C4CC4)[C@@H]4CCC5=CC(=O)CCC5=C43)cc2)nc1` [Example 11], the values for the EC50 on progesterone receptor-B [1] and on progesterone receptor-B [2] were 1.7 nM and 0.8 nM, respectively. The results for the Emax at progesterone receptor-B [1] (setting [3]) and at progesterone receptor-B [2] (setting [4]) were 56% and 35%, respectively.

With `C[C@@H]1C[C@H]2[C@@H]3CCC4=CC(=O)CCC4=C3[C@@H](c3ccc(-c4ccncc4)cc3)C[C@]2(C)[C@H]1C(=O)C1CC1` [Example 12, (11β,16α,17β)-17-cyclopropylcarbonyl-16-methyl-11-[4-(4-pyridinyl)phenyl]estra-4,9-dien-3-one], the EC50 on progesterone receptor-B [1] is 4 nM; at progesterone receptor-B [2] it was 2.5 nM. The Emax on progesterone receptor-B [1] (setting [3]) was found to be 56%; at progesterone receptor-B [2] (setting [4]), 26.5%.

Take `C=C[C@@H]1C[C@H]2[C@@H]3CCC4=CC(=O)CCC4=C3[C@@H](c3ccc(-c4cccnc4)cc3)C[C@]2(C)[C@H]1C(=O)C1CC1` [Example 13, (11β,16α,17β)-17-cyclopropylcarbonyl-16-ethenyl-11-[4-(3-pyridinyl)phenyl]estra-4,9-dien-3-one]: the EC50 at progesterone receptor-B [1] was determined as 0.66 nM; on progesterone receptor-B [2], 0.61 nM. Further, the Emax on progesterone receptor-B [1] (setting [3]) was 46.8%; at progesterone receptor-B [2] (setting [4]) it was 38%.

Turning to `C[C@]12C[C@H](c3ccc(-c4cccnc4)cc3)C3=C4CCC(=O)C=C4CC[C@H]3[C@@H]1C[C@@H](/C=C/c1ccccc1)[C@@H]2C(=O)C1CC1` [Example 14, [11β,16α(E),17β]-17-cyclopropylcarbonyl-16-(2-phenylethenyl)-11-[4-(3-pyridinyl)phenyl]estra-4,9-dien-3-one], the EC50 was found to be 5.7 nM at progesterone receptor-B [1] and 29 nM at progesterone receptor-B [2]. The Emax at progesterone receptor-B [1] (setting [3]) was found to be 49.8%; at progesterone receptor-B [2] (setting [4]), 34.5%.

For the molecule `C=C[C@@H]1C[C@H]2[C@@H]3CCC4=CC(=O)CCC4=C3[C@@H](c3ccc(-c4ccc(OC)nc4)cc3)C[C@]2(C)[C@H]1C(=O)C1CC1` [Example 15, (11β,16α,17β)-17-(cyclopropylcarbonyl)-16-ethenyl-11-[4-(6-methoxypyridin-3-yl)phenyl]estra-4,9-dien-3-one], the values for the EC50 on progesterone receptor-B [1] and on progesterone receptor-B [2] were 0.74 nM and 0.98 nM, respectively. Moreover, the Emax at progesterone receptor-B [1] (setting [3]) came out at 41.4%; on progesterone receptor-B [2] (setting [4]), 44.5%.
